Ends that are not written are not given here.
How the values were obtained:
[1] = system: polyclonal antibody ab6982; assay: Epitope mapping of polyclonal antibody ab6982 against cyclic peptides of Ad5 fiber and hexon (peptide array); format: binding, rabbits; details: cyclic peptides of fiber protein (clusters 1-7)
Excerpt: Polyclonal antibody ab6982 (Abcam) was generated by immunizing rabbits with purified AdV. It reacts with all capsid proteins of Ad5 including hexon, fiber and penton. It was shown that the antibody neutralizes Ad5 infection in a bioassay at 1000 adenovirus 5 particles/ml, a 50% inactivation of the adenovirus can be achieved at a 1/25,000 dilution of the antibody. In order to identify epitopic regions that could contain peptides for ab6982 paratope binding, the antibody was mapped against the sequences of fiber (NCBI Reference Sequence: AP 000226.1) and hexon protein (GenBank: BAG48782.1). […] The binding signal of this antibody to the array yielded several peptides that were aligned and clustered against the sequence of the protein. The peptide clusters were named cluster1-7 (fiber protein) and clusters8-16 (hexon protein) according to their ranked order of cyclic peptide hits (i.e. cluster contains the strongest binders, cluster2 the second strongest etc.). Below are the aligments of the corresponding peptides that bind to polyclonal antibody ab6982.

[2] = system: IgG from human donors (anti-AAV antibodies); assay: Screen for anti-AAV antibodies in human sera, 2452 linear 15-amino-acid AAV peptides on microarrays (Table 1); format: binding; parameters: key to group I: X: the deduplicated aggregate of the respective top 10 peptide hits for each donor was compiled and designated as group I; key to group II: X: the deduplicated aggregate of the respective top 25 peptide hits for each donor was compiled and designated as group II; key to group III: X: the deduplicated aggregate of the respective top 50 peptide hits for each donor was compiled and designated as group III; details: human donor IgG binding to linear 15-amino-acid AAV peptides on microarray, fluorescence; for group II: membership in deduplicated aggregate of top 25 peptide hits for each donor; for group III: membership in deduplicated aggregate of top 50 peptide hits for each donor; for group I: membership in deduplicated aggregate of top 10 peptide hits for each donor
Outline: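 Peptide hits were grouped I to IV by pooling each donor's top 10, 25, 50 or 250 background-corrected fluorescence signals, after deduplication. Signals came from donor IgG, purified on protein G, bound to arrayed 15-residue linear peptides (2452 total) spanning 16 AAV sequences.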

Row | Sequence | antibody binding signal ranking from the microarray experiment [1] | group II [2] | group III [2] | group I [2]
1 | KGEPVNEADAAALE (REGION 1..14: note = peptide derived from viral capsid protein) [SEQ ID NO: 2003] | 153 | X | X | 
2 | LQRGNRQAATADVN (REGION 1..14: note = peptide derived from viral capsid protein) [SEQ ID NO: 2026] | 044 | X | X | 
3 | KNTPVPADPPTTFN (REGION 1..14: note = peptide derived from viral capsid protein) [SEQ ID NO: 2011] | 076 | X | X | 
4 | FEKVPFHSMYAHSQ (REGION 1..14: note = peptide derived from viral capsid protein) [SEQ ID NO: 2031] | 058 | X | X | 
5 | NQTDRNAFYCLEYF [SEQ ID NO: 2036] | 072 | X | X | 
6 | EGASYQVPPQPNGM [SEQ ID NO: 2061] | 108 | X | X | 
7 | RDWQRLINNNWGLR [SEQ ID NO: 2038] | 082 | X | X | 
8 | MASHKDDEEKFFPM [SEQ ID NO: 1989] | 002 | X | X | X
9 | EEEIKTTNPVATES (REGION 1..14: note = peptide derived from viral capsid protein) [SEQ ID NO: 2014] | 123 | X | X | 
10 | EFAWPGASSWALNG (REGION 1..14: note = peptide derived from viral capsid protein) [SEQ ID NO: 2015] | 126 | X | X | 
11 | QIFADSSYELPYVM [SEQ ID NO: 2041] | 112 | X | X | 
12 | KSNNVEFAVNTEGV [SEQ ID NO: 2016] | 009 | X | X | 
13 | GGQMATNNQSLALG [SEQ ID NO: 2021] | 020 | X | X | 
14 | KKRILEPLGLVEEA [SEQ ID NO: 2023] | 023 | X | X | 
15 | TVQIFADSTYELPY [SEQ ID NO: 2039] | 093 | X | X | 
16 | GESESVPDPQPIGE [SEQ ID NO: 2058] | 091 | X | X | 
17 | PVPADPPTAFNKDK (REGION 1..14: note = peptide derived from viral capsid protein) [SEQ ID NO: 2018] | 012 | X | X | 
18 | MVPQYGYCGVVTGK [SEQ ID NO: 2035] | 070 | X | X | 
19 | PVDQSPQEPDSSSG [SEQ ID NO: 1991] | 005 | X | X | X
20 | DIYYQGPIWAKIPH (REGION 1..14: note = peptide derived from viral capsid protein) [SEQ ID NO: 2040] | 102 | X | X | 
21 | TVQVFTDSDYQLPY [SEQ ID NO: 2019] | 013 | X | X | 
22 | PVPADPPTTFNQSK (REGION 1..14: note = peptide derived from viral capsid protein) [SEQ ID NO: 2027] | 047 | X | X | 
23 | QVKEVTTNDGVTTI (REGION 1..14: note = peptide derived from viral capsid protein) [SEQ ID NO: 2048] | 173 | X | X | 
24 | NPVATEQYGSVSTN (REGION 1..14: note = peptide derived from viral capsid protein) [SEQ ID NO: 2005] | 004 | X | X | 

Row | Sequence | antibody binding signal ranking from the microarray experiment [1] | group II [2] | group III [2] | group I [2]
25 | FSAARINSFLTQYS [SEQ ID NO: 2032] | 059 | X | X | 
26 | KSTSVDFAVNTEGV [SEQ ID NO: 2025] | 039 | X | X | 
27 | PVPANPPTTFSPAK [SEQ ID NO: 1992] | 010 | X | X | X
28 | KRLNFEEDTGAGDG [SEQ ID NO: 2053] | 022 | X | X | 
29 | RDTDMFGQIADNNQ [SEQ ID NO: 2037] | 073 | X | X | 
30 | HKDDEEKFFPQSGV (REGION 1..14: note = peptide derived from viral capsid protein) [SEQ ID NO: 2002] | 150 | X | X | 
31 | IEMRAAPGGNAVDA [SEQ ID NO: 2052] | 014 | X | X | 
32 | ADPPTTFNQAKLAS [SEQ ID NO: 2009] | 060 | X | X | 
33 | STGQVAVQIEWEIE [SEQ ID NO: 2055] | 049 | X | X | 
34 | SDSEYQLPYVLGSA [SEQ ID NO: 2050] | 197 | X | X | 
35 | DIYYQGPIWAKVPH [SEQ ID NO: 2030] | 030 | X | X | 
36 | PEPADVFMIPQYGY [SEQ ID NO: 2029] | 029 | X | X | 
37 | HSQSLDRLMNPLLD [SEQ ID NO: 2051] | 008 | X | X | 
38 | ADPPTTFNQSKLNS [SEQ ID NO: 2024] | 032 | X | X | 
39 | QQRVSKTSADNNNS (REGION 1..14: note = peptide derived from viral capsid protein) [SEQ ID NO: 2007] | 015 | X | X | 
40 | AGDNVDYSSVMLTS [SEQ ID NO: 2010] | 065 | X | X | 
41 | MATNNQSLALGETT [SEQ ID NO: 2022] | 021 | X | X | 
42 | EYRTTRPIGTRYLT [SEQ ID NO: 2062] | 134 | X | X | 
43 | EGADGVGNASGNWH (REGION 1..14: note = peptide derived from viral capsid protein) [SEQ ID NO: 2046] | 169 | X | X | 
44 | RVSKTKTDNNNSNF [SEQ ID NO: 2049] | 178 | X | X | 
45 | QTGDADSVPDPQPL (not fully specified) [SEQ ID NO: 2008] | 056 | X | X | 
46 | VMITDEEEIRTTNP (REGION 1..14: note = peptide derived from viral capsid protein) [SEQ ID NO: 1998] | 052 | X | X | X
47 | TTSGETLNQGNAAT [SEQ ID NO: 2057] | 079 | X | X | 
